Test results reported in US20110039793A1, “Application of ginsenoside Rb1 in preparing medicaments for treating dilated cardiomyopathy” (priority 2008, published 2011).

Experiments:
[1] = system: cTnT^R141W transgenic dilated cardiomyopathy mice model; test: M-mode echocardiography, cardiac function and morphous, once a month; assay type: in vivo; parameters: CO (Cardiac Output) / LVAW; d (left ventricular anterior wall thickness, end of diastole) / LV Mass (AW) (weight of the left ventricular) / Diameter; d (inner diameter of the left ventricular, end of diastole) / Volume; d (volume of the left ventricular, end of diastole) / SV (Stroke Volume): unit not given here; details: for Diameter; d (inner diameter of the left ventricular, end of diastole) / Diameter; s (inner diameter of the left ventricular, end of systole) / EF (Ejection Fraction) / FS (Fractional Shortening) / LV Mass (AW) (weight of the left ventricular) / LVAW; d (left ventricular anterior wall thickness, end of diastole) / LVAW; s (left ventricular anterior wall thickness, end of systole) / LVPW; d (left ventricular posterior wall thickness, end of diastole) / LVPW; s (left ventricular posterior wall thickness, end of systole) / SV (Stroke Volume) / Volume; d (volume of the left ventricular, end of diastole) / Volume; s (volume of the left ventricular, end of systole) / CO (Cardiac Output): 75 mg/kg in drinking water
Description: The positive mice at 1.5 months old are distributed by weight and cardiac function uniformly into the model group and the ginsenoside Rb1 administration group according to the echocardiography result, and each group comprises twelve mice. Ginsenoside Rb1, 75 mg/kg (State Yao zhun Zi, Yun Nan Tean Na Pharmaceutical Co., Ltd) is put into animal drinking water, and continuously administered for seven months.
Echocardiography detection is performed once a month. Mice were anesthetized with tribromoethanol, scanned by small animal ultrasonic apparatus (Vevo 770 small animal ultrasonic detection system, Canada), with 30 MHz probe, M-mode echocardiography were analyzed: Body weight (BW), LVPW, d (the thickness of the left ventricular posterior wall at the end of the diastole), LVPW, s (the thickness of the left ventricular posterior wall at the end of the systole), LVAW, d (the thickness of the left ventricular anterior wall at the end of the diastole), LVAW, s (the thickness of the left ventricular anterior wall at the end of the systole), LV Mass (the weight of the left ventricular), Diameter, s (the inner diameter of the left ventricular at the end of the systole), Diameter, d (the inner diameter of the left ventricular at the end of the diastole), Volume, s (the volume of the left ventricular at the end of the systole), Volume, d (the volume of the left ventricular at the end of the diastole), SV (Stroke Volume), EF (Ejection Fraction), FS (Fractional Shortening) and CO (Cardiac Output).

[2] = system: cTnT^R141W transgenic dilated cardiomyopathy mice model; test: Cardiac microstructure, HE and Masson staining, light microscope; assay type: in vivo; details: long-term administration, vs model group
Description: Effects on the cardiac microstructure of the mice model after a long-term administration of ginsenoside Rb1 (HE and Masson staining)
1) Fix the heart and treated in a standard pathological procedure.
3) Composite staining solution for 5 min;
4) Slightly washed by 0.2% acetic acid solution;
5) 5% phosphotungstic acid for 5-10 min;
6) Immersion cleaning twice by 0.2% acetic acid solution;
7) Brilliant green staining solution for 5 min, immersion cleaning twice by 0.2% acetic acid solution;
8) Ethanol dehydration, xylene transparent and sealed with neutral gum;
9) Observed under light microscope, collagen fibers show green, muscle fibers show red and red blood cells show nacarat.

[3] = long-term administration, echocardiography

Structure (SMILES): CC(C)=CCC[C@](C)(O[C@@H]1O[C@H](CO[C@@H]2O[C@H](CO)[C@@H](O)[C@H](O)[C@H]2O)[C@@H](O)[C@H](O)[C@H]1O)[C@H]1CC[C@]2(C)[C@@H]1[C@H](O)C[C@@H]1[C@@]3(C)CC[C@H](O[C@@H]4O[C@H](CO)[C@@H](O)[C@H](O)[C@H]4O[C@@H]4O[C@H](CO)[C@@H](O)[C@H](O)[C@H]4O)C(C)(C)[C@@H]3CC[C@]12C [Rb1, ginsenoside Rb1]
- Diameter; d (inner diameter of the left ventricular, end of diastole) ([1]; 4 month of administration): 4.56 ± 0.26
- Diameter; s (inner diameter of the left ventricular, end of systole) ([1]; 4 month of administration): 3.38 ± 0.35
- EF (Ejection Fraction) ([1]; 4 month of administration): 51.07 ± 6.01
- FS (Fractional Shortening) ([1]; 4 month of administration): 26.05 ± 3.64
- LV Mass (AW) (weight of the left ventricular) ([1]; 4 month of administration): 131.15 ± 12.93
- LVAW; d (left ventricular anterior wall thickness, end of diastole) ([1]; 4 month of administration): 0.81 ± 0.06
- LVAW; s (left ventricular anterior wall thickness, end of systole) ([1]; 4 month of administration): 1.17 ± 0.11
- LVPW; d (left ventricular posterior wall thickness, end of diastole) ([1]; 4 month of administration): 0.71 ± 0.06
- LVPW; s (left ventricular posterior wall thickness, end of systole) ([1]; 4 month of administration): 0.89 ± 0.12
- SV (Stroke Volume) ([1]; 4 month of administration): 48.37 ± 3.32
- Volume; d (volume of the left ventricular, end of diastole) ([1]; 4 month of administration): 95.93 ± 13.01
- Volume; s (volume of the left ventricular, end of systole) ([1]; 4 month of administration): 47.56 ± 11.76
- CO (Cardiac Output) ([1]; 5 month of administration): 23.18 ± 3.13
- Diameter; d (inner diameter of the left ventricular, end of diastole) ([1]; 5 month of administration): 4.93 ± 0.30
- Diameter; s (inner diameter of the left ventricular, end of systole) ([1]; 5 month of administration): 3.86 ± 0.32
- EF (Ejection Fraction) ([1]; 5 month of administration): 43.83 ± 3.93
- FS (Fractional Shortening) ([1]; 5 month of administration): 21.76 ± 2.21
- LV Mass (AW) (weight of the left ventricular) ([1]; 5 month of administration): 150.86 ± 25.12
- LVAW; d (left ventricular anterior wall thickness, end of diastole) ([1]; 5 month of administration): 0.82 ± 0.12
- LVAW; s (left ventricular anterior wall thickness, end of systole) ([1]; 5 month of administration): 1.13 ± 0.10
- LVPW; d (left ventricular posterior wall thickness, end of diastole) ([1]; 5 month of administration): 0.74 ± 0.06
- LVPW; s (left ventricular posterior wall thickness, end of systole) ([1]; 5 month of administration): 0.82 ± 0.08
- SV (Stroke Volume) ([1]; 5 month of administration): 50.03 ± 5.63
- Volume; d (volume of the left ventricular, end of diastole) ([1]; 5 month of administration): 115.02 ± 16.33
- Volume; s (volume of the left ventricular, end of systole) ([1]; 5 month of administration): 64.99 ± 12.65
- CO (Cardiac Output) ([1]; 6 month of administration): 25.99 ± 2.23
- Diameter; d (inner diameter of the left ventricular, end of diastole) ([1]; 6 month of administration): 5.35 ± 0.19
- Diameter; s (inner diameter of the left ventricular, end of systole) ([1]; 6 month of administration): 4.38 ± 0.19
- EF (Ejection Fraction) ([1]; 6 month of administration): 37.03 ± 3.07
- FS (Fractional Shortening) ([1]; 6 month of administration): 18.01 ± 1.71
- LV Mass (AW) (weight of the left ventricular) ([1]; 6 month of administration): 180.65 ± 5.80
- LVAW; d (left ventricular anterior wall thickness, end of diastole) ([1]; 6 month of administration): 0.74 ± 0.04
- LVAW; s (left ventricular anterior wall thickness, end of systole) ([1]; 6 month of administration): 1.09 ± 0.09
- LVPW; d (left ventricular posterior wall thickness, end of diastole) ([1]; 6 month of administration): 0.80 ± 0.01
- LVPW; s (left ventricular posterior wall thickness, end of systole) ([1]; 6 month of administration): 0.93 ± 0.06
- SV (Stroke Volume) ([1]; 6 month of administration): 51.20 ± 5.31
- Volume; d (volume of the left ventricular, end of diastole) ([1]; 6 month of administration): 138.41 ± 11.40
- Volume; s (volume of the left ventricular, end of systole) ([1]; 6 month of administration): 87.21 ± 8.99
- CO (Cardiac Output) ([1]; 7 month of administration): 24.35 ± 4.80
- Diameter; d (inner diameter of the left ventricular, end of diastole) ([1]; 7 month of administration): 5.46 ± 0.34
- Diameter; s (inner diameter of the left ventricular, end of systole) ([1]; 7 month of administration): 4.60 ± 0.44
- EF (Ejection Fraction) ([1]; 7 month of administration): 33.02 ± 6.64
- FS (Fractional Shortening) ([1]; 7 month of administration): 15.92 ± 3.53
- LV Mass (AW) (weight of the left ventricular) ([1]; 7 month of administration): 190.72 ± 20.29
- LVAW; d (left ventricular anterior wall thickness, end of diastole) ([1]; 7 month of administration): 0.79 ± 0.12
- LVAW; s (left ventricular anterior wall thickness, end of systole) ([1]; 7 month of administration): 1.08 ± 0.17
- LVPW; d (left ventricular posterior wall thickness, end of diastole) ([1]; 7 month of administration): 0.82 ± 0.13
- LVPW; s (left ventricular posterior wall thickness, end of systole) ([1]; 7 month of administration): 0.87 ± 0.19
- SV (Stroke Volume) ([1]; 7 month of administration): 47.35 ± 6.92
- Volume; d (volume of the left ventricular, end of diastole) ([1]; 7 month of administration): 145.92 ± 21.42
- Volume; s (volume of the left ventricular, end of systole) ([1]; 7 month of administration): 98.58 ± 22.36
- cardiac function [1, 3]: improve the cardiac function
- dilation of cardiac chamber [1, 3]: significantly reduce
- proliferation of interstitial collagen ([2]; Masson staining): significantly decreased
- hypertrophy and disordered arrangement of the myocytes ([2]; light microscope): improved
